The text below walks through data of US7390873B2, “Antimicrobial cationic peptides” (University of British Columbia, priority 1995, dated 2008).

Where no end group is shown, it is not given here. Bounds are passed on as bounds.

The subject of series [1] is Staphylococcus aureus RN4220. The class given is cell-based. The conditions noted are these: RN4220, 24 h. On the procedure:
(§1) Any of the art-known methods for measuring antimicrobial activity of peptides can be used in characterizing the peptides of the invention. In these examples, conventional methods were used to determine the minimal inhibitory concentration (MIC) of a peptide in a liquid medium (Amsterdam. Antibiotics in Laboratory Medicine, Williams and Wilkins, Baltimore (1991) 72-78). Briefly, overnight cultures of the test organisms (described below) were diluted to produce an inoculum containing approximately 10^4 to 10^5 organisms. The inoculum size was confirmed by counting the number of organisms on plates that were inoculated at the same time as the liquid cultures.
(§2) The concentration of peptide was measured by assaying for free amino groups using a dinitrophenylation assay, with polymyxin B serving as a standard. Doubling dilutions of peptide were performed (32 μg/ml-0.25 μg/ml) in 100 μl volumes in a 96-well mictrotiter plate, and all wells were subsequently inoculated with the diluted culture of the test organism. After 24 hours of incubation at 37° C., the assay was read. The MIC value is the concentration of peptide at which the growth of the test organism was reduced by 50%. The number of cells in the culture inoculum was calculated from the plate count after incubating the plate for 24 hours at 37° C. The medium used for cell culture and dilution in this assay was Luria broth (LB). Each peptide was tested three times against each organism, and the MIC values presented below are the mean values of the three experiments.

In another series the test system is E. coli UB1005. The class given is cell-based. The settings on record: UB1005, 24 h. On the procedure: as §1, §2
The subject of series [2] is Pseudomonas aeruginosa K799. The class given is cell-based. The conditions noted are these: K799, 24 h. On the procedure: as §1, §2
In series [3] the test system is Staphylococcus epidermidis C621. The class given is cell-based. The conditions noted are these: C621, 24 h. On the procedure:
as §1, §2

In a further series the test system is Candida albicans C627. The class given is cell-based. The settings on record: C627, 24 h.
A further series concerns human red blood cells. Put plainly: Lysis of red blood cells. The class given is cell-based. As for the experimental part: Freshly collected human blood was mixed with heparin and centrifuged to remove the buffy coat. The resulting erythrocytes were washed three times in 0.85% saline and stored at 4° C. Serial dilutions of the peptides in saline were prepared in round bottomed microtitre plates using 100 μl volumes. Red blood cells were diluted with saline to 1/25 of the packed volume of cells and 50 μl of red blood cells were added to each well. Plates were incubated while rocking at 37° C., and the concentration of peptide required for red blood cell lysis of more than 80% of cells (i.e., visible lysis) was determined at 4 and 24 hours (Table 7).

Series [4] can be described thus: Mortality after injection of peptide in mice. The class given is in vivo. The settings on record: 200 μg peptide IP. On the procedure:
The ability of indolicidin and variants to protect against LPS-induced endotoxemia was assessed in vivo. Mice (8-10 weeks old) were injected intraperitoneally (IP) with 20 mg D-galactosamine (Dgal) to sensitive them to LPS according to the model of Galanos (Galanos, C., M. A., Freudenberg and W. Reutter, 1979, Galactosamine sensitization to the lethal effects of endotoxin. Proc. Natl. Acad. Sci. USA 76:5939), followed by 200 μg peptide in 100 μl. Immediately afterwards LPS (10 μg) in 100 μl was injected. The mice were observed 24 hours after injections and survivors noted. […] When Dgal and LPS were also injected, that 200 μg of indolicidin reduced mortality reduced at 24 hours from 100% in controls to 60%.

The nature of series [5]: Dansyl polymyxin B (DPX) displacement assay. The settings on record: concentration at which 50% of the maximal DPX was displaced from the LPS; read-out: I50 of DPX displacement. The class given is binding, P. aeruginosa. On the procedure: Peptides that bind lipopolysaccharide are thought to potentially function as anti-endotoxins. The binding of various CP peptides to P. aeruginosa H103 lipopolysaccharide (LPS) was measured in a dansyl polymyxin B (DPX) displacement assay as described by Moore et al. (AAC, 26 (1986) 496-500). […] Purified LPS was saturated with DPX by titrating LPS with samples of DPX until maximum fluorescence was reached. Fluorescence was measured in a Perkin-Elmer 650-10S fluorescence spectrophotometer and displacement of DPX was measured as a decrease in fluorescence upon the addition of an antimicrobial peptide.
Each peptides I50 value, which is the concentration at which 50% of the maximal DPX was displaced from the LPS, is shown. Also shown is the Imax value, which represents the maximum displacement of […] expressed as a percentage, where 100% indicates displacement of all bound DPX.

In the case of ILKKWPWWPWRRK [CP-11], the “MIC S. aureus” value in series [1] is 16 µg/mL. Besides, the “MIC E. coli” value in the series on E. coli UB1005 is 4 µg/mL. In addition, the “MIC P. aeruginosa” value in series [2] is 16 µg/mL. For the same compound, the “MIC S. epidermidis” value in series [3] turned out to be 2 µg/mL. Besides, in the series with Candida albicans C627, the “MIC C. albicans” value was found to be 8 µg/mL. Besides, in the series on T-lymphocytes, the “Toxicity to T-lymphocytes compared with indolicidin” value is listed as “less toxic than indolicidin”. In the series on human red blood cells, the “Lowest concentration causing lysis, 4 hours” value is >128 µg/mL and the “Lowest concentration causing lysis, 24 hours” value was >128 µg/mL. In series [4], the “Mortality after injection of peptide” value is recorded as “did not cause mortality”.
Regarding `[Mg+2]` [Mg^2+ ions, Mg^2+], the IC50 in [5] was ~620 µM.
